A short description of the data set: Evaluation of water solubility (appearance of water dispersion). Type of data set: physicochemical. To be noted: 1.500 g e-As4S4 of Embodiment 5 or 100 mg r-As4S4 powder in 10 mL ddH2O; FIG. 1. How it is done:
1.500 grams of e-As4S4 of Embodiment 5 and 100 mg of the r-As4S4 powder were weighed and added in 10 mL of double distilled water (ddH2O), respectively to obtain the water dispersion solution of e-As4S4 and r-As4S4.

The results in this text go back to patent US11976300B2, “Use of water-soluble realgar solid dispersion in preparation of erythroid differentiation inducer for bone marrow hematopoietic stem cells and/or bone marrow hematopoietic progenitor cells” (Institute of Basic Medical Sciences Chinese Academy of …, priority 2018, dated 2024).

Regarding `S1[As]2S[As]3S[As]2S[As]13` [r-As4S4, As4S4], the “dissolution in ddH2O (appearance of the suspension)” value is on record as “hardly to dissolve in water”.
